Data as given in ChEMBL document CHEMBL3045407, “Synthesis and antimicrobial activity of pyrazolinones and pyrazoles having benzothiazole moiety” (2012).
Values after ≈ are worked out from the molar mass of the structure shown.

Legend:
Assay type in all cases: functional
[1] = system: Candida albicans; assay: Antimicrobial activity against Candida albicans ATCC 90028 by serial plate dilution method
[2] = system: Aspergillus niger; assay: Antimicrobial activity against Aspergillus niger ATCC 9029 by serial plate dilution method
[3] = system: Escherichia coli; assay: Antimicrobial activity against Escherichia coli ATCC 25922 by serial plate dilution method
[4] = system: Staphylococcus aureus; assay: Antimicrobial activity against Staphylococcus aureus ATCC 25923 by serial plate dilution method

With `CC(=O)N1CCN(c2ccc(OCC3COC(Cn4ccnc4)(c4ccc(Cl)cc4Cl)O3)cc2)CC1` (stereo unspecified) [KETOCONAZOLE] the MIC [1] was 5.88 µM (≈ 3.12 µg/mL) and the MIC [2] was 11.8 µM (≈ 6.25 µg/mL).
In the case of `Cc1nn(-c2nc3ccc(Cl)cc3s2)c(C)c1/N=N/c1ccccc1Cl`, the MIC [1] is reported as 125 µM (≈ 50.2 µg/mL), the MIC [2] is reported as 125 µM (≈ 50.2 µg/mL) and the MIC [3] is reported as 249 µM (≈ 100 µg/mL). The MIC [4] was 499 µM (≈ 201 µg/mL).
`COc1ccc(/N=N/c2c(C)nn(-c3nc4ccc(Cl)cc4s3)c2C)cc1` gave an MIC [1] of 63 µM (≈ 25.1 µg/mL), an MIC [2] of 504 µM (≈ 200 µg/mL) and an MIC [3] of 252 µM (≈ 100 µg/mL). The MIC [4] was 252 µM (≈ 100 µg/mL).
`CC1=NN(c2nc3ccc(Cl)cc3s2)C(=O)/C1=N/Nc1ccccc1C` gave an MIC [1] of 522 µM (≈ 200 µg/mL), an MIC [2] of 261 µM (≈ 100 µg/mL) and an MIC [3] of 261 µM (≈ 100 µg/mL). For the same compound, the MIC [4] was 131 µM (≈ 50.1 µg/mL).
`Cc1nn(-c2nc3ccc(Cl)cc3s2)c(C)c1/N=N/c1ccc(Br)cc1` showed an MIC [1] of 112 µM (≈ 50.1 µg/mL), an MIC [2] of 56 µM (≈ 25 µg/mL) and an MIC [3] of 112 µM (≈ 50.1 µg/mL). It also gave an MIC [4] of 112 µM (≈ 50.1 µg/mL).
For `CC1=NN(c2nc3ccc(Cl)cc3s2)C(=O)/C1=N/Nc1ccc(C)cc1`, the MIC [1] was 522 µM (≈ 200 µg/mL), the MIC [2] was 261 µM (≈ 100 µg/mL) and the MIC [3] was 131 µM (≈ 50.1 µg/mL). The MIC [4] was 65.3 µM (≈ 25.1 µg/mL).
`Cc1nn(-c2nc3ccc(Cl)cc3s2)c(C)c1/N=N/c1ccc(F)cc1` gave an MIC [1] of 260 µM (≈ 100 µg/mL), an MIC [2] of 130 µM (≈ 50.1 µg/mL) and an MIC [3] of 32.5 µM (≈ 12.5 µg/mL). It also gave an MIC [4] of 64.9 µM (≈ 25.1 µg/mL).
In the case of `Cc1ccc(/N=N/c2c(C)nn(-c3nc4ccc(Cl)cc4s3)c2C)cc1`, the MIC [1] is reported as 131 µM (≈ 50.1 µg/mL), the MIC [2] is reported as 262 µM (≈ 100 µg/mL) and the MIC [3] is reported as 65.6 µM (≈ 25.1 µg/mL). For the same compound, the MIC [4] was 131 µM (≈ 50.1 µg/mL).
Compound `CC1=NN(c2nc3ccc(Cl)cc3s2)C(=O)/C1=N/Nc1ccc(Br)cc1` has an MIC [1] of 112 µM (≈ 50.1 µg/mL), an MIC [2] of 223 µM (≈ 100 µg/mL) and an MIC [3] of 112 µM (≈ 50.1 µg/mL). The MIC [4] was 13.9 µM (≈ 6.26 µg/mL).
`Cc1nn(-c2nc3ccc(Cl)cc3s2)c(C)c1/N=N/c1ccc(C(=O)O)cc1` gave an MIC [1] of 243 µM (≈ 100 µg/mL), an MIC [2] of 243 µM (≈ 100 µg/mL) and an MIC [3] of 243 µM (≈ 100 µg/mL). It also gave an MIC [4] of 122 µM (≈ 50.1 µg/mL).
For `CC1=NN(c2nc3ccc(Cl)cc3s2)C(=O)/C1=N/Nc1ccc(C(=O)O)cc1`, the MIC [1] was 242 µM (≈ 100 µg/mL), the MIC [2] was 484 µM (≈ 200 µg/mL) and the MIC [3] was 242 µM (≈ 100 µg/mL). For the same compound, the MIC [4] was 121 µM (≈ 50.1 µg/mL).
For `CC1=NN(c2nc3ccc(Cl)cc3s2)C(=O)/C1=N/Nc1ccc(Cl)cc1`, the MIC [1] was 124 µM (≈ 50.1 µg/mL), the MIC [2] was 124 µM (≈ 50.1 µg/mL) and the MIC [3] was 62 µM (≈ 25.1 µg/mL). The MIC [4] was 31 µM (≈ 12.5 µg/mL).
`Cc1nn(-c2nc3ccc(Cl)cc3s2)c(C)c1/N=N/c1ccccc1C(=O)O` gave an MIC [1] of 243 µM (≈ 100 µg/mL), an MIC [2] of 122 µM (≈ 50.1 µg/mL) and an MIC [3] of 487 µM (≈ 200 µg/mL). It also gave an MIC [4] of 122 µM (≈ 50.1 µg/mL).
`CC1=NN(c2nc3ccc(Cl)cc3s2)C(=O)/C1=N/Nc1ccc(F)cc1` was tested, and the MIC [1] was 64.6 µM (≈ 25 µg/mL), the MIC [2] was 129 µM (≈ 50.1 µg/mL) and the MIC [3] was 129 µM (≈ 50.1 µg/mL). The MIC [4] was 32.3 µM (≈ 12.5 µg/mL).
Work on `Cc1ccccc1/N=N/c1c(C)nn(-c2nc3ccc(Cl)cc3s2)c1C` yielded an MIC [1] of 262 µM (≈ 100 µg/mL), an MIC [2] of 525 µM (≈ 200 µg/mL) and an MIC [3] of 262 µM (≈ 100 µg/mL). It also gave an MIC [4] of 262 µM (≈ 100 µg/mL).
`CC1=NN(c2nc3ccc(Cl)cc3s2)C(=O)/C1=N/Nc1ccccc1O` was tested, and the MIC [1] was 260 µM (≈ 100 µg/mL), the MIC [2] was 519 µM (≈ 200 µg/mL) and the MIC [3] was 260 µM (≈ 100 µg/mL). For the same compound, the MIC [4] was 130 µM (≈ 50.1 µg/mL).
In the case of `COc1ccc(N/N=C2/C(=O)N(c3nc4ccc(Cl)cc4s3)N=C2C)cc1`, the MIC [1] is reported as 251 µM (≈ 100 µg/mL), the MIC [2] is reported as 501 µM (≈ 200 µg/mL) and the MIC [3] is reported as 251 µM (≈ 100 µg/mL). For the same compound, the MIC [4] was 125 µM (≈ 50.1 µg/mL).
For `Cc1nn(-c2nc3ccc(Cl)cc3s2)c(C)c1/N=N/c1ccccc1O`, the MIC [1] was 261 µM (≈ 100 µg/mL), the MIC [2] was 522 µM (≈ 200 µg/mL) and the MIC [3] was 522 µM (≈ 200 µg/mL). The MIC [4] was 522 µM (≈ 200 µg/mL).
Work on `CC1=NN(c2nc3ccc(Cl)cc3s2)C(=O)/C1=N/Nc1ccccc1Cl` yielded an MIC [1] of 248 µM (≈ 100 µg/mL), an MIC [2] of 248 µM (≈ 100 µg/mL) and an MIC [3] of 124 µM (≈ 50.2 µg/mL). It also gave an MIC [4] of 62 µM (≈ 25.1 µg/mL).
`NNc1nc2ccc(Cl)cc2s1` was tested, and the MIC [1] was 501 µM (≈ 100 µg/mL), the MIC [2] was 1000 µM (≈ 200 µg/mL) and the MIC [3] was 501 µM (≈ 100 µg/mL). It also gave an MIC [4] of 250 µM (≈ 50 µg/mL).
With `Cc1nn(-c2nc3ccc(Cl)cc3s2)c(C)c1/N=N/c1ccc(Cl)cc1` the MIC [1] was 249 µM (≈ 100 µg/mL), the MIC [2] was 31.2 µM (≈ 12.5 µg/mL) and the MIC [3] was 125 µM (≈ 50.2 µg/mL). For the same compound, the MIC [4] was 15.6 µM (≈ 6.27 µg/mL).
For `CC1=NN(c2nc3ccc(Cl)cc3s2)C(=O)/C1=N/Nc1ccccc1C(=O)O`, the MIC [1] was 121 µM (≈ 50.1 µg/mL), the MIC [2] was 484 µM (≈ 200 µg/mL) and the MIC [3] was 484 µM (≈ 200 µg/mL). For the same compound, the MIC [4] was 242 µM (≈ 100 µg/mL).
